ChEMBL document CHEMBL1153691, “2-Deoxyadenylyl-(35)-isodideoxyadenosine, a unique dinucleotide: Synthesis, enzymology, and conformational studies” (Bioorg Med Chem Lett, 1995)

What was measured:
[1] = target: Human immunodeficiency virus type 1 reverse transcriptase (Human immunodeficiency virus 1, UniProt Q72547); test: Inhibitory activity against HIV reverse transcriptase (HIV RT)
[2] = test system: bovine spleen phosphodiesterase; test: Enzymatic stability was assessed with bovine spleen phosphodiesterase (BS PDE) exonuclase; assay type: ADME, Bos taurus; conditions: cattle, bovine spleen phosphodiesterase (BS PDE) exonuclease
[3] = test system: snake venom phosphodiesterase; test: Enzymatic stability was assessed with snake venom phosphodiesterase (SV PDE) exonuclase; assay type: ADME; conditions: serpentes, snake venom phosphodiesterase (SV PDE) exonuclease

Work on Nc1ncnc2c1ncn2C1COC(COP(=O)(O)OP(=O)(O)OP(=O)(O)O)C1 (stereo not given) yielded a Ki [1] of 16 nM.

For Nc1ncnc2c1ncn2[C@@H]1CO[C@H](COP(=O)([O-])OC2C[C@H](n3cnc4c(N)ncnc43)OC2CO)C1.[Na+] (stereo not given in full), the half-life [2] was 50 min and the half-life [3] was over 550 min.

Nc1ncnc2c1ncn2[C@H]1C[C@H](OP(=O)(O)OC[C@H]2O[C@@H](n3cnc4c(N)ncnc43)C[C@@H]2O)[C@@H](CO)O1 gave a half-life [2] of 1.5 min and a half-life [3] of under 1 min.
